“Also recorded” adds a separate entry of the source.

The text below walks through data of patent publication US12612405B2, “Crystalline form of 1-(8-Bromopyrido[2,3-E][1,2,4]triazolo[4,3-a]pyrazin-4-Yl)-Nmethylazetidin-3-amine hydrogen sulfate monohydrate” (JW PHARMACEUTICAL CORPORATION, priority 2021, dated 2026).

Series [1] relates to inflammatory cells such as mast cells and eosinophils. The settings on record: cited from earlier work.
The nature of series [2]: Solubility in common crystallization solvents. To be noted: common crystallization solvents including alcohols.
In the next series the target is histamine 4 receptor (Homo sapiens, UniProt Q9H3N8). To be noted: cited from earlier work.
Chain of histamine 4 receptor (Q9H3N8 whole entry): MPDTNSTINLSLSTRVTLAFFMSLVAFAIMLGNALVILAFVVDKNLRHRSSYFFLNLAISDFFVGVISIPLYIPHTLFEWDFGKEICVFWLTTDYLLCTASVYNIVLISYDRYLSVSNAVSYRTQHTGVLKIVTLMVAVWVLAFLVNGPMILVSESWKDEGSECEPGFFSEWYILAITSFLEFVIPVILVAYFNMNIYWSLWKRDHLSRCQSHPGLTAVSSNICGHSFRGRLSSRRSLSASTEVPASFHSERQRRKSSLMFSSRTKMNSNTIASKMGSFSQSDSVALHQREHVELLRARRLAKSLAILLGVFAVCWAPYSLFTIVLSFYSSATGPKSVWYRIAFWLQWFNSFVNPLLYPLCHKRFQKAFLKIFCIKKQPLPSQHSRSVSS
The nature of series [3]: Interconversions between the crystalline forms (stability at rt, in suspension, during drying). To be noted: for solid phase stability / transition at room temperature: rt, ambient conditions; for stability during drying: drying process; for stability under conditions / suspensions with high water content: high amounts of water. Type of series: physicochemical. The text has this:
The table below summarizes interconversions between the different forms and other issues which may be relevant to their use in pharmaceutical compositions: […]

The nature of series [4]: Dynamic Vapor Sorption (DVS). To be noted: for hygroscopicity classification: according to Ph. Eur. Type of series: physicochemical. The procedure:
Instrument: DVS Advantage
Methods: About 5 mg of the substance was added into Al pan and exposed to stepwise RH changes during two consecutive cycles according to; 20-30-40-50-60-70-80-70-60-50-40-30-20-10-0-10-20-30-40-50-60-70-80-90-80-70-60-50-40-30-20-10-0/RH using open loop mode. The experiments were performed using a gas flow rate of 200 ml/min and at 25° C. The dm/dt criteria applied was 0.001 weight-%/min during a 5 minutes window, with a maximum allowed time of 150 minutes for all steps, except for the steps at 0% RH which had no criteria but were set to 6 h.

A short description of series [5]: Solubility according to Ph. Eur. and USP. Type of series: physicochemical. From the text:
The solubility of form B according to Ph.

A short description of series [6]: Thermal stability by TGA / DSC. Type of series: physicochemical. On the procedure: TGA experiments were conducted using a TGA550 instrument from TA Instruments. About 1-10 mg of sample was loaded into a ceramic pan for the measurements. The sample temperature was ramped from 25 to 500° C. at 10° C./min. Nitrogen was used as the purge gas at a flow rate of 50 mL/min.
DSC analyses were carried out on a TA Instruments Q20 Differential Scanning Calorimeter. Accurately weighed samples were placed in crimped aluminum pans. Each sample was heated under nitrogen at a rate of 10° C./minute to a maximum of 300° C. Indium metal was used as the calibration standard.

Turning to `CNC1CN(c2nc3ncc(Br)cc3n3cnnc23)C1` [1-(8-bromopyrido[2,3-e][1,2,4]triazolo[4,3-a]pyrazin-4-yl)-N-methylazetidin-3-amine], the “effect against histamine induced infiltration of inflammatory cells” value in series [1] was “suppressive effects”. For the same compound, in series [2], the “solubilities in common solvents used for crystallizations” value was “very low solubilities”. Also, the “histamine 4 receptor inhibitory effect” value on histamine 4 receptor is on record as “strong histamine 4 receptor inhibitory effect”.

Turning to `CNC1CN(c2nc3ncc(Br)cc3n3cnnc23)C1.O=S(=O)(O)O` [Form A, 1-(8-bromopyrido[2,3-e][1,2,4]triazolo[4,3-a]pyrazin-4-yl)-N-methylazetidin-3-amine hydrogen sulfate], in series [3] (hydrogen sulfate), the “solid phase stability / transition at room temperature” value (shortened to “solid phase stability / transition”) was “that undergoes solid phase transition to form B at rt over time”.

As for `CNC1CN(c2nc3ncc(Br)cc3n3cnnc23)C1.O.O=S(=O)(O)O` [Form B, 1-(8-bromopyrido[2,3-e][1,2,4]triazolo[4,3-a]pyrazin-4-yl)-N-methylazetidin-3-amine hydrogen sulfate monohydrate], the “water absorbed (DVS)” value in series [4] (25° C., between 10 and 80% RH) is listed as “By (DVS) it was demonstrated that form B absorbs 0.2%”. In addition, the hygroscopicity classification entry in series [4] (DVS) is on record as “considered non-hygroscopic according to Ph. Eur. 5. (the increase in mass of a drug substance between about 0% to 80% relative humidity is less than 0.2% by weight)”. For the same compound, the solubility entry in series [5] (1-4-dioxane) is “insoluble”; in series [5] (1-propanol), “insoluble”; in series [5] (2-propanol), “insoluble”; in series [5] (acetone), “insoluble”; in series [5] (chloroform) it was “insoluble”; in series [5] (dimethyl sulfoxide), “Soluble”. Besides, the solubility result is listed as “slightly soluble” in series [5] (dimethylformamide); “insoluble” in series [5] (ethanol); “insoluble” in series [5] (ethyl acetate); “insoluble” in series [5] (isopropyl acetate); “very slightly soluble” in series [5] (methanol); “insoluble” in series [5] (methyl tert-butyl ether). The solubility entry in series [5] (n-butyl acetate) is “insoluble”; in series [5] (tert-amyl alcohol), “insoluble”; in series [5] (tetrahydrofuran) it was “insoluble”; in series [5] (water) it was “sparingly soluble”; in series [5] (xylene), “insoluble”.

Take `CNC1CN(c2nc3ncc(Br)cc3n3cnnc23)C1.O=S(=O)(O)O` [Form C, 1-(8-bromopyrido[2,3-e][1,2,4]triazolo[4,3-a]pyrazin-4-yl)-N-methylazetidin-3-amine hydrogen sulfate]: the “phase transition when humidity increased to 90%” value in series [4] (DVS, humidity increased to 90%) is “observed and partial phase transition to the non-stoichiometric”. Moreover, the hygroscopicity classification result in series [4] (DVS) is on record as “is just in the range for being slightly hygroscopic. DVS”. Further, the “water uptake at increased relative humidity” value in series [4] (increased relative humidity) is listed as “The anhydrate significantly takes up water at increased”. In series [3] (liquid environment, more than 20% water), the “stability in liquid environment containing more than 20% water” value was 20% water form C will not be stable and therefore can be.

For `CNC1CN(c2nc3ncc(Br)cc3n3cnnc23)C1.O=S(=O)(O)O` [Form D, 1-(8-bromopyrido[2,3-e][1,2,4]triazolo[4,3-a]pyrazin-4-yl)-N-methylazetidin-3-amine hydrogen sulfate], the “solid phase stability / transition” value in series [3] (hydrogen sulfate) is on record as “solid phase transformation to form C”. The “stability in suspension formulations” value in series [3] (suspension formulations, hydrogen sulfate) is listed as “converts to forms F, I, or N depending on the conditions”.

In the case of `CNC1CN(c2nc3ncc(Br)cc3n3cnnc23)C1.O=S(=O)(O)O` [Form F, 1-(8-bromopyrido[2,3-e][1,2,4]triazolo[4,3-a]pyrazin-4-yl)-N-methylazetidin-3-amine hydrogen sulfate], in series [3] (hydrogen sulfate), the stability during drying entry is given as “Converts to another form during drying process. The water can; also recorded: very easily be dried off” and the “stability under conditions / suspensions with high water content” value was “with high water content form F converts to form I”.

`CNC1CN(c2nc3ncc(Br)cc3n3cnnc23)C1.O=S(=O)(O)O` [Form I, 1-(8-bromopyrido[2,3-e][1,2,4]triazolo[4,3-a]pyrazin-4-yl)-N-methylazetidin-3-amine hydrogen sulfate]: the stability during drying entry in series [3] (hydrogen sulfate) is “not stable during drying at room temperature where it; also recorded: converts to form K, which then converts to form C at room; also recorded: product as it converts to form C in drying processes”. Further, in series [3], the “stability under conditions / suspensions with high water content” value is reported as “the crystal structure. The dihydrate form I is the most stable”.

Consider `CNC1CN(c2nc3ncc(Br)cc3n3cnnc23)C1.O=S(=O)(O)O` [Form K, 1-(8-bromopyrido[2,3-e][1,2,4]triazolo[4,3-a]pyrazin-4-yl)-N-methylazetidin-3-amine hydrogen sulfate], for which, in series [3] (hydrogen sulfate), the stability during drying entry was “Form K converts to form C in drying processes” and the “solid phase stability / transition” value was “Form K converts to form C at room temperature”.

Turning to `CNC1CN(c2nc3ncc(Br)cc3n3cnnc23)C1.O=S(=O)(O)O` [Form M, 1-(8-bromopyrido[2,3-e][1,2,4]triazolo[4,3-a]pyrazin-4-yl)-N-methylazetidin-3-amine hydrogen sulfate], the “broad endothermic event due to water loss and breakdown of the crystal lattice” value in series [6] stood at 44 °C. Further, the “temperature of weight loss (TGA curve)” value in series [6] (TGA) was 50 °C. In addition, the thermal stability entry in series [6] (hydrogen sulfate) is “Form M is a monohydrate but loses water and melts at very; also recorded: this low thermal stability form M is not suitable for”.

Take `CNC1CN(c2nc3ncc(Br)cc3n3cnnc23)C1.O=S(=O)(O)O` [hydrogen sulfate salt, 1-(8-bromopyrido[2,3-e][1,2,4]triazolo[4,3-a]pyrazin-4-yl)-N-methylazetidin-3-amine hydrogen sulfate]: the “solubilities in common solvents used for crystallizations” value in series [2] is given as “very low solubilities”.
